Data as given in ChEMBL document CHEMBL1201862, “PubChem BioAssay data set” (2004).
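Step 1: Grow cells in 96-well plates. Step 2: Expose to compound for 48 hours at 5 concentrations. Step 3: Interpolate endpoints linearly; if unreached, use highest concentration. Here, GI50 denotes the concentration required for 50% inhibition of growth.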 Activity calls are given as the source filed them. Rule as the data show it: active = GI50 up to about 1.1 µM and inactive = higher.

Key:
Assay in all cases: DTP human tumour cell line panel, 48 h
KM12 = system: KM12
SK-MEL-28 = system: SK-MEL-28
MCF7 = system: MCF7
HCT-116 = system: HCT-116
HCC 2998 = system: HCC 2998
M14 = system: M14
786-0 = system: 786-0
MOLT-4 = system: MOLT-4
NCI-H23 = system: NCI-H23
MDA-MB-435 = system: MDA-MB-435
EKVX = system: EKVX
HOP-92 = system: HOP-92
HT-29 = system: HT-29
NCI-H226 = system: NCI-H226
TK-10 = system: TK-10
RXF 393 = system: RXF 393
SR = system: SR
NCI-H522 = system: NCI-H522
RPMI-8226 = system: RPMI-8226

Compound | GI50 (KM12) | GI50 (SK-MEL-28) | GI50 (MCF7) | GI50 (HCT-116) | GI50 (HCC 2998) | GI50 (M14) | GI50 (786-0) | GI50 (MOLT-4) | GI50 (NCI-H23) | GI50 (MDA-MB-435) | GI50 (EKVX) | GI50 (HOP-92) | GI50 (HT-29) | GI50 (NCI-H226) | GI50 (TK-10) | GI50 (RXF 393) | GI50 (SR) | GI50 (NCI-H522) | GI50 (RPMI-8226)
CC(C)C1OC23CCCCC2C(C#N)(C#N)C1(C#N)C(=N)O3 (centres undefined) | > 10 µM (inactive) | 27.4 µM (inactive) | 12.1 µM (inactive) | 16 µM (inactive) | 13.4 µM (inactive) | 12.8 µM (inactive) | 14.2 µM (inactive) | 23.1 µM (inactive) | 26.1 µM (inactive) | 23.7 µM (inactive) | 27.5 µM (inactive) | 16.5 µM (inactive) | 14.5 µM (inactive) | 98.6 µM (inactive) | 19.9 µM (inactive) | 20.5 µM (inactive) | – | – | –
COc1ccc(/C=C(\C#N)c2ccccn2)cc1OC | 53.1 µM (inactive) | 38.4 µM (inactive) | 17.9 µM (inactive) | 31.7 µM (inactive) | 65.2 µM (inactive) | > 100 µM (inactive) | 43.9 µM (inactive) | 57.4 µM (inactive) | 43.7 µM (inactive) | – | 5.4 µM (inactive) | 17 µM (inactive) | 43 µM (inactive) | 27.2 µM (inactive) | 63.7 µM (inactive) | 23.7 µM (inactive) | 33.8 µM (inactive) | 39.8 µM (inactive) | 45.7 µM (inactive)
CC(=O)OC12c3ccccc3C(c3ccccc31)C1C(=O)N(Nc3ccccc3)C(=O)C12 (centres undefined) | > 100 µM (inactive) | > 100 µM (inactive) | > 100 µM (inactive) | > 100 µM (inactive) | > 100 µM (inactive) | > 100 µM (inactive) | > 100 µM (inactive) | > 100 µM (inactive) | > 100 µM (inactive) | – | > 100 µM (inactive) | – | > 100 µM (inactive) | > 100 µM (inactive) | > 100 µM (inactive) | > 100 µM (inactive) | > 100 µM (inactive) | – | > 100 µM (inactive)
CC(C)=CCC[C@]1(C)CC[C@]2(C)C3CCC(=C(C)C)[C@@H](CCCO)[C@]3(C)CC[C@@]2(C)C1 (some centres undefined) | 57.9 µM (inactive) | > 100 µM (inactive) | 24 µM (inactive) | 36.7 µM (inactive) | 25.5 µM (inactive) | 30.3 µM (inactive) | 32.4 µM (inactive) | 39.2 µM (inactive) | 84.9 µM (inactive) | > 100 µM (inactive) | 46.5 µM (inactive) | – | 40.2 µM (inactive) | > 100 µM (inactive) | 20.2 µM (inactive) | – | – | 17.8 µM (inactive) | 26.5 µM (inactive)
COc1ccccc1NC(=O)C1=C(C)NC(C)=C(C(=O)Nc2ccccc2OC)C1c1ccc(C(C)C)cc1 | 55.6 µM (inactive) | 80.5 µM (inactive) | – | 13.8 µM (inactive) | 63.7 µM (inactive) | > 100 µM (inactive) | > 100 µM (inactive) | 9.18 µM (inactive) | > 100 µM (inactive) | – | 33 µM (inactive) | 82.4 µM (inactive) | > 100 µM (inactive) | > 100 µM (inactive) | > 100 µM (inactive) | – | 15.5 µM (inactive) | – | 7.38 µM (inactive)
CCCCCCCCC#CCCCCCCC(F)C(=O)O (centres undefined) | > 100 µM (inactive) | > 100 µM (inactive) | – | > 100 µM (inactive) | > 100 µM (inactive) | > 100 µM (inactive) | > 100 µM (inactive) | > 100 µM (inactive) | > 100 µM (inactive) | > 100 µM (inactive) | 43.1 µM (inactive) | > 100 µM (inactive) | > 100 µM (inactive) | > 100 µM (inactive) | > 100 µM (inactive) | > 100 µM (inactive) | > 100 µM (inactive) | > 100 µM (inactive) | 29.8 µM (inactive)
COCC1OC(OC2OCC3OC4(OCC(O)(C(C)OC)C5OCOC54)OC3C2OC)C(OC)C(O)C1OC1OC(C)C(OC)C(OC2OC(C)C3OC4(CC(O)C(OC5CC(OC6CC(C)([N+](=O)[O-])C(OC)C(C)O6)C(OC(=O)c6c(C)c(Cl)c(O)c(Cl)c6OC)C(C)O5)C(C)O4)OC3(C)C2O)C1O (centres undefined) | > 100 µM (inactive) | > 100 µM (inactive) | – | > 100 µM (inactive) | > 100 µM (inactive) | > 100 µM (inactive) | > 100 µM (inactive) | > 100 µM (inactive) | > 100 µM (inactive) | > 100 µM (inactive) | > 100 µM (inactive) | > 100 µM (inactive) | > 100 µM (inactive) | > 100 µM (inactive) | > 100 µM (inactive) | > 100 µM (inactive) | > 100 µM (inactive) | > 100 µM (inactive) | > 100 µM (inactive)
C=C(CCC=C(C)C)C1CC=C(C)CC1 (centres undefined) | 19 µM (inactive) | – | 19.8 µM (inactive) | 19.4 µM (inactive) | – | 62.4 µM (inactive) | 17.1 µM (inactive) | – | 17.7 µM (inactive) | 18.2 µM (inactive) | 29.2 µM (inactive) | – | – | > 100 µM (inactive) | 38.5 µM (inactive) | 13.9 µM (inactive) | – | 16.4 µM (inactive) | –
Cc1ccsc1/C=N/Nc1cc(C)c2cccc(C)c2n1 | > 100 µM (inactive) | > 100 µM (inactive) | 2.75 µM (inactive) | – | > 100 µM (inactive) | > 100 µM (inactive) | 24.4 µM (inactive) | – | > 100 µM (inactive) | > 100 µM (inactive) | > 100 µM (inactive) | > 100 µM (inactive) | 4.14 µM (inactive) | > 100 µM (inactive) | > 100 µM (inactive) | – | – | – | –
O=c1ccc2c(Cl)sc(Cl)c2[nH]1 | > 100 µM (inactive) | > 100 µM (inactive) | > 100 µM (inactive) | > 100 µM (inactive) | > 100 µM (inactive) | > 100 µM (inactive) | > 100 µM (inactive) | > 100 µM (inactive) | > 100 µM (inactive) | > 100 µM (inactive) | 98.4 µM (inactive) | – | > 100 µM (inactive) | – | > 100 µM (inactive) | > 100 µM (inactive) | – | 92.9 µM (inactive) | > 100 µM (inactive)
Cc1ccc(/N=N/C(=N/NC(=O)c2cc(Cl)ccc2C(=O)c2ccccc2)c2ccc(N(CCC#N)CCC#N)cc2C)cc1 | 10.9 µM (inactive) | 14.1 µM (inactive) | 3.52 µM (inactive) | 9.64 µM (inactive) | 13.8 µM (inactive) | 11.8 µM (inactive) | 10.4 µM (inactive) | 4.99 µM (inactive) | 21.8 µM (inactive) | 18.7 µM (inactive) | 17.3 µM (inactive) | – | 16.9 µM (inactive) | 10.4 µM (inactive) | 19.7 µM (inactive) | 0.0957 µM (active) | – | 4.81 µM (inactive) | 10.2 µM (inactive)
CC1=C(/C=C/C(C)=C/C=C/C(C)=C/CO)C(C)(C)CCC1 [RETINOL] | 36.1 µM (inactive) | 25.5 µM (inactive) | – | – | 17.3 µM (inactive) | 16.8 µM (inactive) | 17.2 µM (inactive) | 18 µM (inactive) | 21.8 µM (inactive) | 22.1 µM (inactive) | 27.1 µM (inactive) | – | 27.2 µM (inactive) | 20.7 µM (inactive) | – | 12.4 µM (inactive) | 18.1 µM (inactive) | 25.5 µM (inactive) | –
